Biological target: T1, NOD1 (Homo sapiens, UniProt Q9Y239)
T1 construct: expressed in transfected cells; host or cells: HEK293T
T1 sequence (Q9Y239 1-953): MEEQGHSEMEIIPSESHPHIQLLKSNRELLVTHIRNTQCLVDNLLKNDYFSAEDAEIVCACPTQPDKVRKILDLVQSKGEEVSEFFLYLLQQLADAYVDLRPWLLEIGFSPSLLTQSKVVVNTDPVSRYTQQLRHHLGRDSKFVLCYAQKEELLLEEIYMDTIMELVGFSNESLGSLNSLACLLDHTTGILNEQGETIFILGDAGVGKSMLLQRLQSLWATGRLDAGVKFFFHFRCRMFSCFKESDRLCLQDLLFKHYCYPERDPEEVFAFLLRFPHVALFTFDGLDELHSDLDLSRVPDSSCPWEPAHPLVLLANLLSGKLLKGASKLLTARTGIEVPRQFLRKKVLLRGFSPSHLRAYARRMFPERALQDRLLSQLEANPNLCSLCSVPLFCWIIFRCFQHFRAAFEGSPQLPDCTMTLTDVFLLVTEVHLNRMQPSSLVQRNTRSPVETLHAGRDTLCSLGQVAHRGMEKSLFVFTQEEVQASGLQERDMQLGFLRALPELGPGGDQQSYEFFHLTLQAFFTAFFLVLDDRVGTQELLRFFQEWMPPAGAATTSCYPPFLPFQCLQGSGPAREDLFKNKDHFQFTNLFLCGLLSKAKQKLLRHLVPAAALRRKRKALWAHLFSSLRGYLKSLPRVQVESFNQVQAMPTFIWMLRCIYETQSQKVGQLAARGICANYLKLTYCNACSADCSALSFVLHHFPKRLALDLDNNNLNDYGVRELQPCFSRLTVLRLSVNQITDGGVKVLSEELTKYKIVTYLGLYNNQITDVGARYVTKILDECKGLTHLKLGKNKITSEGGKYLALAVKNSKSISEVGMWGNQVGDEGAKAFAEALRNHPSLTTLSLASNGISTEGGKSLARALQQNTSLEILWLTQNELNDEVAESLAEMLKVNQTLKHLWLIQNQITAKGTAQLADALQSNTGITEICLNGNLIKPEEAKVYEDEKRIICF
Assay: NF-κB-dependent luciferase reporter assay, HEK293T cells expressing NOD1
Type: cell-based
Excerpt: Reagents. LPS from S. typhimurium, intact and alkaline-detoxified LPS from E. coli O55:B5 as well as purified lipid A preparations of E. coli F583, MDP, DAP and dsRNA were obtained from Sigma-Aldrich (St. Louis, Mo.). PGN from S. aureus was from Fluka-Chemie (Buchs, Germany). Palmitoyl-Cys ((RS)-2,3-di(palmitoyloxy)-propyl)-Ala-Gly) (sBLP), was obtained from Bachem (Torrance, Calif.). The tetrameric form of the disaccharide dipeptide was described previously (Inohara et al., J. Biol. Chem. 278:5509 [2003]). iE-DAP and iQ-DAP, M3P and M4P were synthesized as described (Kitaura et al., J. Med. Chem. 25:335 [1982]) with small modification. Purification of PGN from B. subtilis 168 and C. flaccumfaciens with hydrolases, Cellosyl or recombinant AtlE (amidase domain) and the fractionation and purification of reduced B. subtilis PGN digested with Cellosyl were performed as previously described (Heilman et al., Mol. Microbiol. 24:1013 [1997]; Atrih et al., J. Bact. 181:3956 [1999]). Removal of proteins and reduction of LPS fraction. E. coli O55:B5 LPS (Sigma) was treated with proteinase K at 37° C. for 12 hr to digest contaminating proteins. To eliminate lipoproteins, LPS was subjected to modified phenol extraction with deoxycholate-containing phenol as described (Hirschfeld et al., J. Immunol. 165:618 [2000]). For reduction of carboxyl group in the LPS, the LPS was treated with 1-ethyl-3-(3-dimethylaminopropyl) carbodiimide and then reduced with NaBH4 as described (Taylor et al., Biochemistry 11:1383 [1972]). Preparation of E. coli extract. E. coli K-12 mutants were all based on the SØ864 genetic background (lacZ trp upp relA rpsL) (Neuhard and Thomassen, J. Bacteriol. 126:999). SØ874 carries a large chromosomal deletion removing the gene clusters for the biosynthesis of CA capsule and O-antigen. CLM5 is a derivative of SØ874 with a transposon insertion in the wecC gene that blocks the synthesis of ECA (Marolda et al., J. Bacteriol. 177:5539[1995]). FAM5 is a derivative of SØ874 carrying a deletion that eliminates the incorporation of heptose in the LPS core. Extracts were prepared from all of these E. coli K-12 strains and also from another E. coli K-12 strain, LCD27 YA21-6 (Obtained from Dr. Arisaka, Tokyo Institute of Technology). Bacteria were cultured overnight at 37° C. in Luria broth, killed by treatment with acetone followed by vacuum drying and finally resuspended in 10 mM HEPES. The extract was treated with 1M NaOH at 55° C. for 12 hr and neutralized with 1M HEPES (pH 7.4). The soluble fraction after centrifugation and filtration with 0.22 μm filter was applied to SUPEROSE 12 gel filtration column chromatography. Partial purification of NOD1-stimulatory molecules from E. coli and composition analyses. The amino acid composition of E. coli O55:B5 LPS was determined using AccQ·Tag amino acid analysis system (Waters, Milford, Mass.) after hydrolysis at 110° C. for 24 hr. For carbohydrate analysis, E coli K-12 YA21-6 (Ref 26) cultured overnight at 37° C. in L-broth were washed with TBS twice and incubated with TBS containing 1 mglml DNase I, RNase I and lysozyme for 37° C. for 2 hr. Acetone was added to the extracts at 50% final concentration and the insoluble fractions were washed with an excess of 75% and 100% acetone. After vacuum drying, the acetone extract was solublized with 1 M NaOH and incubated at 60° C. for 24 hr. The pH was adjusted to pH 5.0 with acetic acid and the soluble fraction was passed through SUPEROSE gel filtration column. SUPEROSE fractions with NOD1-stimulatory activity were diluted with 10 mM Tris-HCl (pH 8.8) and subjected to UnoQ column chromatography. The fractions were eluted with a linear gradient of 0–300 mM NaCl. The positive fractions were dialyzed against water and dried under vacuum. The monosaccharide composition of the fractions after TFA/methanol degradation was determined as previously described (Forsberg et al., J. Biol. Chem. 273:2747[1998]). Transfection and NF-κB Activation Assay. […]

Row | Substance | NOD1-dependent NF-κB activation (NOD1 stimulation)
1 | MurNAc-L-Ala-γ-D-Gln [MDP] | Neither MDP nor tetrameric forms of disaccharide dipeptide (4 mer) stimulated NOD1
2 | γ-D-Gln-DAP [iQ-DAP] | stimulated NOD1
3 | γ-D-glutamy-meso-diaminopimelic acid [iE-DAP] | stimulated NOD1
4 | Palmitoyl-Cys ((RS)-2,3-di(palmitoyloxy)-propyl)-Ala-Gly) [synthetic lipoprotein] | not NOD1
